Reference: PubChem BioAssay (NCI)
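Protocol summary: plate cells (96-well), add compound at 5 concentrations, incubate 48 h, interpolate endpoints linearly. GI50: concentration for 50% inhibition of growth. TGI is the concentration that stops growth completely.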

Legend:
Test in all cases: NCI-60 cell line screen, 48 h
OVCAR-3 ovarian = tested on: OVCAR-3 ovarian
CCRF-CEM leukemia = tested on: CCRF-CEM leukemia
MOLT-4 leukemia = tested on: MOLT-4 leukemia
HOP-92 NSCLC = tested on: HOP-92 NSCLC
MALME-3M melanoma = tested on: MALME-3M melanoma
HCT-15 colon = tested on: HCT-15 colon
RXF 393 renal = tested on: RXF 393 renal
CAKI-1 renal = tested on: CAKI-1 renal
KM12 colon = tested on: KM12 colon
SF-295 CNS = tested on: SF-295 CNS

Compound	GI50 (OVCAR-3 ovarian) [µM]	TGI (OVCAR-3 ovarian) [µM]	GI50 (CCRF-CEM leukemia) [µM]	TGI (CCRF-CEM leukemia) [µM]	GI50 (MOLT-4 leukemia) [µM]	TGI (MOLT-4 leukemia) [µM]	GI50 (HOP-92 NSCLC) [µM]	TGI (HOP-92 NSCLC) [µM]	GI50 (MALME-3M melanoma) [µM]	TGI (MALME-3M melanoma) [µM]	GI50 (HCT-15 colon) [µM]	TGI (HCT-15 colon) [µM]	GI50 (RXF 393 renal) [µM]	TGI (RXF 393 renal) [µM]	GI50 (CAKI-1 renal) [µM]	TGI (CAKI-1 renal) [µM]	TGI (KM12 colon) [µM]	TGI (SF-295 CNS) [µM]	GI50 (SF-295 CNS) [µM]	GI50 (KM12 colon) [µM]
Cc1ccc(-c2nc(C(Cl)Cl)n3nc(-c4ccccc4)cc3n2)cc1	0.222	0.586	> 100	> 100	> 100	> 100	0.281	1.35	> 100	> 100	0.313	1.12	0.298	0.896	0.31	1.49				
O=C(Nc1ccc(S(=O)(=O)N[C@@H](C(=O)O)c2ccccc2)cc1)c1ccc(F)cc1		> 100		> 100		> 100		> 100		> 100		> 100		> 100		> 100	> 100	> 100		
CC1=Nc2c(ccc3c2C(=O)c2ccccc2C3=O)NC(c2ccncc2)C1 (centres undefined)	> 100	> 100		> 100		> 100	> 100	> 100	> 100	> 100		> 100	> 100	> 100	3.77	> 100	> 100	> 100	> 100	
COc1ccc2c(-c3cc4ccccc4o3)cc(=O)oc2c1		30.4		> 100		> 100		75.3		> 100		> 100		53.5		> 87.4	> 100	79.7		
CC(=O)OCCOCBr		> 100		> 100				> 100		> 100		> 100		> 100		> 100	> 100	> 100		
NC(CCSCC(F)F)C(=O)O (centres undefined)		> 100		> 100		> 100		> 100		> 100		> 100		> 100		> 100	> 100	> 100		
CCN(CCO)CCNc1ccc(C)c2sc3cc(Cl)ccc3c(=O)c12	1.72	4.13	1.52	3.46	1.27	3.01	1.56	8.94	1.86	3.51	0.538	1.85	0.738	2.2	1.72	4.03	3.36	3.19	1.61	1.67
COc1ccc(NC2=C(Br)C(=O)C(C)=C(C)C2=O)cc1	1.72	3.13	2.33	> 100	2.67	> 100	1.55	3.08	14.5	28.3	11.4	27.7	2.71	8.13	1.72	3.11	19	27	13.8	5.02
Oc1ccc(Cc2ccccc2)c2cccnc12	6.7	37.6	0.423	5.44	1.41	93.8	1.02	39.6	2.96	31.6	0.507	44.9	2.3	19.2	2.22	8.96	27	20.5	1.34	2.07
CCn1c(-c2nonc2N)nc2ccc(F)cc21	> 25	> 25	> 25	> 25	> 25	> 25	7.36	> 25	> 25	> 25	> 25	> 25	> 25	> 25	> 25	> 25	> 25	> 25	> 25	> 25
CCCSc1cc(Cl)nc(N)n1	> 100	> 100	> 100	> 100	94.8	> 100	14.8	> 100	> 100	> 100	> 100	> 100	> 100	> 100	90.7	> 100	> 100	> 100	> 100	> 100
Oc1c(Br)cc(CN(Cc2cc(Br)c(O)c(Br)c2)C2CCCCC2)cc1Br		> 100		> 100		> 100		> 100		> 100		> 100		> 100		> 100	> 100	> 100		
CCOC(=O)[C@@H](C)C[C@H](Cc1ccccc1)NC(=O)c1csc([C@@H](C[C@H](C(C)C)N(C)C(=O)[C@@H](NC(=O)[C@H]2CCCCN2C)C(C)(C)C)OC(C)=O)n1	< 0.00167	0.00352	< 0.00167	> 16.7	0.00217	> 16.7	< 0.00167	1.44	< 0.00167	> 16.7	< 0.00167	> 16.7	< 0.00167	> 16.7	< 0.00167	> 16.7	0.215	0.0918	< 0.00167	< 0.00167
COc1ccc2c(c1)[C@@]13CCN4CC5=CCO[C@H]6CC(=O)N2[C@H]1[C@H]6[C@H]5C[C@H]43		> 100		> 100		> 100		> 100		> 100		> 100		> 100		> 100	> 100	> 100		
C=C(C)[C@@H]1CC[C@@]2(C(=O)O)CC[C@]3(C)C(CCC4[C@@]5(C)CCC(OS(=O)(=O)c6ccccc6)C(C)(C)C5CC[C@]43C)C12 (some centres undefined)	3.95	14.9	5.28	> 100			2.47	16.2	12.2	26	2.93	19.9	13.8	29.7	2.36	9.89	15	11.8	1.93	3.37
